Data taken from the NIST ThermoML archive (doi:10.1021/acs.jced.5b00018).

Assays:
[1] = refractive index (Na D-line) (dimensionless); wn = mass fraction of the nth substance listed; settings: 100 kPa, Liquid, Standard Abbe refractometry
[2] = refractive index (Na D-line) (dimensionless); settings: 100 kPa, Liquid, Standard Abbe refractometry

[Cl-].[Na+] [sodium chloride] + O
refractive index, [1]
Settings	293.15 K	298.15 K	303.15 K	308.15 K	313.15 K	318.15 K
w1 = 0.01	1.3365	1.3359	1.3354	1.3346	1.3339	1.3333
w1 = 0.05	1.3434	1.3428	1.3422	1.3414	1.3407	1.3398
w1 = 0.1	1.3521	1.3514	1.3508	1.3502	1.3495	1.3485
w1 = 0.15	1.361	1.3604	1.3596	1.359	1.358	1.3572
w1 = 0.2	1.3702	1.3692	1.3683	1.3678	1.367	1.3661
w1 = 0.25	1.3795	1.3788	1.378	1.3773	1.3767	1.3757

O [water] + [Ca+2].[Cl-].[Cl-]
[1], w2 = 0
Settings	refractive index
293.15 K	1.3335
298.15 K	1.333
303.15 K	1.3323
308.15 K	1.332
313.15 K	1.3316
318.15 K	1.3312

O [water] + [Cl-].[Na+]
[1], w2 = 0
Settings	refractive index
293.15 K	1.3335
298.15 K	1.333
303.15 K	1.3323
308.15 K	1.332
313.15 K	1.3316
318.15 K	1.3312

OC[C@H]1O[C@H](O)[C@H](O)[C@@H](O)[C@@H]1O [α-D-glucose] + O
refractive index, [1]
Settings	w1 = 0.01	w1 = 0.05	w1 = 0.1	w1 = 0.15	w1 = 0.2	w1 = 0.3	w1 = 0.4	w1 = 0.5
293.15 K	1.336	1.3412	1.3481	1.3553	1.3623	1.3775	1.3947	1.4119
298.15 K	1.3355	1.3406	1.3475	1.3548	1.3617	1.3768	1.3939	1.4106
303.15 K	1.3349	1.3401	1.3469	1.3542	1.361	1.3763	1.3932	1.41
308.15 K	1.3345	1.3395	1.3463	1.3535	1.3604	1.3757	1.3925	1.4098
313.15 K	1.3337	1.3388	1.3455	1.3527	1.3596	1.3747	1.3919	1.4086
318.15 K	1.3329	1.3379	1.3447	1.3519	1.3588	1.3739	1.3907	1.4073

O [water]
[2]
Settings	refractive index
293.15 K	1.3335
298.15 K	1.333
303.15 K	1.3323
308.15 K	1.332
313.15 K	1.3316
318.15 K	1.3312

O [water] + [Cl-].[K+]
[1], w2 = 0
Settings	refractive index
293.15 K	1.3335
298.15 K	1.333
303.15 K	1.3323
308.15 K	1.332
313.15 K	1.3316
318.15 K	1.3312

[Cl-].[K+] [potassium chloride] + O
refractive index, [1]
Settings	293.15 K	298.15 K	303.15 K	308.15 K	313.15 K	318.15 K
w1 = 0.01	1.3349	1.3345	1.334	1.3335	1.333	1.332
w1 = 0.05	1.3405	1.3401	1.3396	1.339	1.3384	1.3379
w1 = 0.1	1.3486	1.348	1.3476	1.347	1.3464	1.346
w1 = 0.15	1.3577	1.3571	1.3566	1.356	1.3554	1.355

[Ca+2].[Cl-].[Cl-] [calcium chloride] + O
refractive index, [1]
Settings	293.15 K	298.15 K	303.15 K	308.15 K	313.15 K	318.15 K
w1 = 0.01	1.3356	1.3353	1.3349	1.3344	1.3339	1.3331
w1 = 0.05	1.3442	1.3437	1.3431	1.3426	1.342	1.3414
w1 = 0.1	1.3568	1.3561	1.3555	1.3551	1.3546	1.3539
w1 = 0.15	1.3689	1.3686	1.368	1.3671	1.3667	1.3662
w1 = 0.2	1.3818	1.3814	1.3807	1.3802	1.3795	1.3789
w1 = 0.25	1.3945	1.3943	1.394	1.3933	1.3926	1.392

O [water] + CCOC(C)=O
[1], w2 = 0
Settings	refractive index
293.15 K	1.3335
298.15 K	1.333
303.15 K	1.3323
308.15 K	1.332
313.15 K	1.3316
318.15 K	1.3312

O [water] + OC[C@H]1O[C@H](O)[C@H](O)[C@@H](O)[C@@H]1O
[1], w2 = 0
Settings	refractive index
293.15 K	1.3335
298.15 K	1.333
303.15 K	1.3323
308.15 K	1.332
313.15 K	1.3316
318.15 K	1.3312

CCOC(C)=O [ethyl acetate] + O
refractive index, [1]
Settings	293.15 K	298.15 K	303.15 K	308.15 K	313.15 K	318.15 K
w1 = 0.009	1.3341	1.3335	1.3331	1.3327	1.3321	1.3317
w1 = 0.027	1.3352	1.3348	1.3342	1.3337	1.3332	1.3326
w1 = 0.045	1.3368	1.3364	1.3358	1.3353	1.3346	1.3342
w1 = 0.064	1.3384	1.338	1.3377	1.3368	1.3358	1.3352
w1 = 0.082	1.3391	1.3388	1.3383	1.3378	1.3373	1.3365
